Measured values reported in patent US7238693B2, “Aryl carbamate derivatives, preparation and use thereof” (Cerep, priority 2001, dated 2007).
pKi: −log10 of the molar value. Read-outs that look alike come from different tables or passages of the source.

How the values were obtained:
Assay type in all cases: binding
human isoform h5-HT4e = target: T1, human isoform h5-HT4e (Homo sapiens, UniProt Q13639); assay: displacement of radioligand [3H]-GR113808 in rat glial cells expressing h5-HT4e
T1 construct: expressed in transfected cells; membrane preparation
T1 sequence (Q13639 1-378 isoform Q13639-5): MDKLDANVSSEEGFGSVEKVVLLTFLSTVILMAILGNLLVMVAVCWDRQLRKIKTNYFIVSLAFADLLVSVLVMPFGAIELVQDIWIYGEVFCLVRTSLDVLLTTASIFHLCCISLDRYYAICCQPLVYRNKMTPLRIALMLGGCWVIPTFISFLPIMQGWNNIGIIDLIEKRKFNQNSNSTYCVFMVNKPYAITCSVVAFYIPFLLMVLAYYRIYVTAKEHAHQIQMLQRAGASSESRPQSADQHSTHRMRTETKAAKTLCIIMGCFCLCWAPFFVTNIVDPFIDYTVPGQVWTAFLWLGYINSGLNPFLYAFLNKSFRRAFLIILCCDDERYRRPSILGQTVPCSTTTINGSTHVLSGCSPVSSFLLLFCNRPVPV
Method: The compounds of the invention were evaluated by measuring their affinity constant Ki determined by displacing a radioligand [^3H]-GR113808 in rat glial cells stably expressing the human isoform h5-HT4e.
Confluent glial cells were washed twice in PBS and centrifuged at 300 g for 5 min. The pellet was used immediately and the cells were suspended in 10 volumes of HEPES (50 mM, pH 7.4, 4° C.) then homogenized with a teflon homogenizer and centrifuged at 40,000 g for 20 min. The pellet was resuspended in 15 volumes of HEPES. Displacement experiments were carried out in 500 μl of buffer (50 mM HEPES) containing 20 μl of radioligand [^3H]-GR113808 at a concentration of 0.2 nM for isoform h5-HT4e or at a concentration equal to half of the Kd of the radioligand for the other isoforms expressed in COS cells, 20 μl of competitor ligand at seven different concentrations and 50 μl of membrane preparation (100–200 μg of protein determined by the Bradford method). Binding was carried out at 25° C. for 30 min and the reaction was stopped by rapid vacuum filtration (Brandel Harvester) on Whatman GF/B filters preincubated in 0.1% PEI solution to minimize nonspecific binding.
Membrane-bound radioactivity is retained on the filter, which was cut and washed with cold buffer (50 mM Tris-HCl, pH 7.4) and incubated overnight in 4 ml of scintillation liquid. Radioactivity was measured in a liquid scintillation counter (Beckman LS 6500C). Binding data were obtained by computer assisted linear regression (Graph Prism Program, Graph Pad Software. Inc., San Diego, Calif.)

5-HT5A receptor = 5-HT5A receptor (Homo sapiens, UniProt P47898); assay: selectivity, 5-HT5A receptor; conditions: up to a concentration of 1 μM
Sequence of 5-HT5A receptor (P47898 whole entry): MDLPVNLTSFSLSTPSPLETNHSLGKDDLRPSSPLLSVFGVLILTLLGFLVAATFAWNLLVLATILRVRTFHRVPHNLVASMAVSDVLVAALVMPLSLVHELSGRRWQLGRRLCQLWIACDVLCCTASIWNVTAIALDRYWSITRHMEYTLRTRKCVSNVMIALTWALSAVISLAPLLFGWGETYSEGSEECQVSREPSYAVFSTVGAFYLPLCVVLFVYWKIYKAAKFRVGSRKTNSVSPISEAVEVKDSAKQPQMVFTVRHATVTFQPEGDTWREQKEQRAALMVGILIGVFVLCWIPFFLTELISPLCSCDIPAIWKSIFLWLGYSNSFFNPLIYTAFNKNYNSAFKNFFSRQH

5-HT1B receptor = 5-HT1B receptor (Homo sapiens, UniProt P28222); assay: selectivity, 5-HT1B receptor; conditions: up to a concentration of 1 μM
Sequence of 5-HT1B receptor (P28222 whole entry): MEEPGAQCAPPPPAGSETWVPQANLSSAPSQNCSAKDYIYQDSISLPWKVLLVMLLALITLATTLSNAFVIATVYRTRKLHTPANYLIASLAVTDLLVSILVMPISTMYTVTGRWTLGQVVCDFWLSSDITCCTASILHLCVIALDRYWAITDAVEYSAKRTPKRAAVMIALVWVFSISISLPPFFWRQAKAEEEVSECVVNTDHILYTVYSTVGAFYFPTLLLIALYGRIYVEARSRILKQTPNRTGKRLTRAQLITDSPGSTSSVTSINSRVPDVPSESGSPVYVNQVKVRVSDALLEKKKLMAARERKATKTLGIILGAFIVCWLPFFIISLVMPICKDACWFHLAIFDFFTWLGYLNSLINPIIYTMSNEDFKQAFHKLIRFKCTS

5-HT6 receptor = 5-HT6 receptor (Homo sapiens, UniProt P50406); assay: selectivity, 5-HT6 receptor; conditions: up to a concentration of 1 μM
Sequence of 5-HT6 receptor (P50406 whole entry): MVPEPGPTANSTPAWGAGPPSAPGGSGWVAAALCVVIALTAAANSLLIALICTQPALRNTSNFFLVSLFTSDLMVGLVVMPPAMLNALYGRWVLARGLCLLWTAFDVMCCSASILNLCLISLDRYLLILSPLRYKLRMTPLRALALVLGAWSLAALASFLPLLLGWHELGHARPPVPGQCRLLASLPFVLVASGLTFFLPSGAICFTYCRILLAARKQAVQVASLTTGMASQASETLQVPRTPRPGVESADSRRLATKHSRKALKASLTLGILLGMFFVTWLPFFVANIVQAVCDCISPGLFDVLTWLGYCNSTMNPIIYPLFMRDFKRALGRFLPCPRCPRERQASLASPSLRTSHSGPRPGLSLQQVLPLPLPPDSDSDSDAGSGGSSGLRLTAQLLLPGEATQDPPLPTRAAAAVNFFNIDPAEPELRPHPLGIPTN

5-HT7 receptor = 5-HT7 receptor (Homo sapiens, UniProt P34969); assay: selectivity, 5-HT7 receptor; conditions: up to a concentration of 1 μM
Sequence of 5-HT7 receptor (P34969 whole entry): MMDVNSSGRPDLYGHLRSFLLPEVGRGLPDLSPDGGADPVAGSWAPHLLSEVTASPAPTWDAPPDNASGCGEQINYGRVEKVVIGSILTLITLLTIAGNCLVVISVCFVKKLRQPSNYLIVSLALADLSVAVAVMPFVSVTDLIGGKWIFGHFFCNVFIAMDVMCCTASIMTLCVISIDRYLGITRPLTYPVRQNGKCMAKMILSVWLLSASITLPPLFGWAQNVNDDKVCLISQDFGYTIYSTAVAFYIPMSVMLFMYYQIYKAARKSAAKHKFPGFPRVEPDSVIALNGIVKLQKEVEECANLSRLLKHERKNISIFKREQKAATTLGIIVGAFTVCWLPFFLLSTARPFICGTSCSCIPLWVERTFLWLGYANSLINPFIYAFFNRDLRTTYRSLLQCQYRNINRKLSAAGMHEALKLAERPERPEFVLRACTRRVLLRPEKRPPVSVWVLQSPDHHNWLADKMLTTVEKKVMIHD

5-HT3 receptor = target: T2, 5-HT3 receptor (Homo sapiens, UniProt P46098); assay: selectivity, 5-HT3 receptor; conditions: up to a concentration of 1 μM
T2 sequence (P46098 24-478): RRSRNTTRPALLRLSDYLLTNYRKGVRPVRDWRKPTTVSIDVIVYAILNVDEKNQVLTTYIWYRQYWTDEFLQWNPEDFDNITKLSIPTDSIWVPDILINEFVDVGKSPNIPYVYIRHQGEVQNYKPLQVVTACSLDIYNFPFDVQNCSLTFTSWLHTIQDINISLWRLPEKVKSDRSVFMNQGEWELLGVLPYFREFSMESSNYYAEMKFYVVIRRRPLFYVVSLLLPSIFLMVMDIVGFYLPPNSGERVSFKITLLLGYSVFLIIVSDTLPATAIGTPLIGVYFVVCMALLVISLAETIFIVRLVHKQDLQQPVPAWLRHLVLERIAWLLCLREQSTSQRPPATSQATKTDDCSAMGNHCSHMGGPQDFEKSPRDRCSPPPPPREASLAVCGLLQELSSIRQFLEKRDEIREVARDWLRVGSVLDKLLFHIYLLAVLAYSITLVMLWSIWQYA

5-HT2A receptor = 5-HT2A receptor (Homo sapiens, UniProt P28223); assay: selectivity, 5-HT2A receptor; conditions: up to a concentration of 1 μM
Sequence of 5-HT2A receptor (P28223 whole entry): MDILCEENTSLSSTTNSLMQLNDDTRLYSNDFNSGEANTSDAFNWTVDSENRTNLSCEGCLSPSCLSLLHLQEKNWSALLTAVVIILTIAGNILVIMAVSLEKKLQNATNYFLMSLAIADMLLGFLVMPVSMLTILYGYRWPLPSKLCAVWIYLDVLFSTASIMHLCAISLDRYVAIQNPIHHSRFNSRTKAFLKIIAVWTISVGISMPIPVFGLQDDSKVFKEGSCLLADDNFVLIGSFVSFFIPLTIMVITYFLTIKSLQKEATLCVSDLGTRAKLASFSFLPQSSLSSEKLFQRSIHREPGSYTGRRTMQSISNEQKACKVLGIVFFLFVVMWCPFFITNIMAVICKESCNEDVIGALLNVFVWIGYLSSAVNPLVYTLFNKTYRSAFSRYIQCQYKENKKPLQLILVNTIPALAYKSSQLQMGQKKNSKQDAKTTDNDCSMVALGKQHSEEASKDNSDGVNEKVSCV

5-HT2C receptor = target: T3, 5-HT2C receptor (Homo sapiens, UniProt P28335); assay: selectivity, 5-HT2C receptor; conditions: up to a concentration of 1 μM
T3 sequence (P28335 33-458): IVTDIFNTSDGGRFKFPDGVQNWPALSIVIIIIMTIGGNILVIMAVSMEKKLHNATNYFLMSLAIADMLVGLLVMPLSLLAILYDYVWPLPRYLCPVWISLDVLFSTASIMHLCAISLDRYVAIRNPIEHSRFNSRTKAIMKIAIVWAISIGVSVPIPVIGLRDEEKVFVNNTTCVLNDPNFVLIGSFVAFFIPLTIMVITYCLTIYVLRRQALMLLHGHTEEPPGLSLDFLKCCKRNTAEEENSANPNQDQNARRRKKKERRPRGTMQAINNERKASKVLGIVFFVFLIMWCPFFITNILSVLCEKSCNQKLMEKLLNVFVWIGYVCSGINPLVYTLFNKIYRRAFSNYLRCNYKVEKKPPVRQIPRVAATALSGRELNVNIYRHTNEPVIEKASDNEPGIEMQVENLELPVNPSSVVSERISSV

5-HT1A receptor = target: T4, 5-HT1A receptor (Homo sapiens, UniProt P08908); assay: selectivity, 5-HT1A receptor; conditions: up to a concentration of 1 μM
T4 sequence (P08908 1-422): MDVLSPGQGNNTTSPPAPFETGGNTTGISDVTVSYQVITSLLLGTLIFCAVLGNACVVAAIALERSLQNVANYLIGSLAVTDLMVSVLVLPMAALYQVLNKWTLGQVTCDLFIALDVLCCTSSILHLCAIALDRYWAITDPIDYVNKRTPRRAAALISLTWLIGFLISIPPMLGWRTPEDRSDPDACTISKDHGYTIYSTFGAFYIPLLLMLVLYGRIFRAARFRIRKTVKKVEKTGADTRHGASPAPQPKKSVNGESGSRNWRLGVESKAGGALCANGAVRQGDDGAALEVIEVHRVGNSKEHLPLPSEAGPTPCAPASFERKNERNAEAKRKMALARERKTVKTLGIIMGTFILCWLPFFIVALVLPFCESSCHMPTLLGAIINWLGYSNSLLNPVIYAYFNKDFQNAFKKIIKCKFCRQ

[1] = [3H]-GR113808 0.2 nM, membranes of rat glial cells expressing h5-HT4e, 25° C., 30 min, read-out: Ki

| Structure (SMILES) | pKi (human isoform h5-HT4e; [1]) | further results |
| --- | --- | --- |
| CCOc1ccccc1NC(=O)OCCCN1CCN(c2ncccn2)CC1 [Compound 44, 3-[4-(2-pyrimidinyl)piperazino]propyl-N-(2-ethoxyphenyl)carbamate] | 7.93 | – |
| CCOc1ccccc1NC(=O)OCCCN1CCN(c2ccccn2)CC1 [Compound 40, 3-[4-(2-pyridinyl)piperazino]propyl-N-(2-ethoxyphenyl)carbamate] | 8.00 | – |
| CCOc1ccccc1NC(=O)OCCCN1CCN(c2ccc(C)nn2)CC1 [Compound 48, 3-[4-(6-methyl-3-pyridazinyl)piperazino]propyl-N-(2-ethoxyphenyl)carbamate] | 8.41 | – |
| COc1ccccc1NC(=O)OCCN1CCN(c2cccnn2)CC1 [Compound 64, 2-[4-(3-pyridazinyl)piperazino]ethyl-N-(2-methoxyphenyl)carbamate] | 7.97 | – |
| COc1cccc(N2CCN(CCOC(=O)Nc3ccccc3OC)CC2)c1 [Compound 51, 2-[4-(3-methoxyphenyl)piperazino]ethyl-N-(2-methoxyphenyl)carbamate] | 7.90 | – |
| COc1ccccc1NC(=O)OCCN1CCN(c2ccccn2)CC1 [Compound 62, 2-[4-(2-pyridinyl)piperazino]ethyl-N-(2-methoxyphenyl)carbamate] | 8.03 | – |
| CCOc1ccccc1NC(=O)OCCCN1CCN(c2ccncn2)CC1 [Compound 43, 3-[4-(4-pyrimidinyl)piperazino]propyl-N-(2-ethoxyphenyl)carbamate] | 7.98 | – |
| COc1ccccc1NC(=O)OCCN1CCN(c2ncccn2)CC1 [Compound 65, 2-[4-(2-pyrimidinyl)piperazino]ethyl-N-(2-methoxyphenyl)carbamate] | 7.98 | – |
| CCOc1ccccc1NC(=O)OCCN1CCN(c2ccccn2)CC1 [Compound 24, 2-[4-(2-pyridinyl)piperazino]ethyl-N-(2-ethoxyphenyl)carbamate] | 8.35 | – |
| CCOc1ccccc1NC(=O)OCCCN1CCN(c2cccnn2)CC1 [Compound 42, 3-[4-(3-pyridazinyl)piperazino]propyl-N-(2-ethoxyphenyl)carbamate] | 8.44 | – |
| COc1ccccc1NC(=O)OCCN1CCN(c2ccncc2)CC1 [Compound 63, 2-[4-(4-pyridinyl)piperazino]ethyl-N-(2-methoxyphenyl)carbamate] | – | activity for the 5-HT5A receptor (5-HT5A receptor): no activity; activity for the 5-HT1B receptor (5-HT1B receptor): no activity; activity for the 5-HT6 receptor (5-HT6 receptor): no activity; pKi (human isoform h5-HT4e; as stated in the description, read-out: Ki for the 5-HT4 receptor): 8.30; activity for the 5-HT7 receptor (5-HT7 receptor): no activity; activity for the 5-HT3 receptor (5-HT3 receptor): no activity; activity for the 5-HT2A receptor (5-HT2A receptor): no activity; activity for the 5-HT2C receptor (5-HT2C receptor): no activity; activity for the 5-HT1A receptor (5-HT1A receptor): no activity |
| CCOc1ccccc1NC(=O)OCCN1CCN(c2cccc(C)c2)CC1 [Compound 21, 2-[4-(3-methylphenyl)piperazino]ethyl-N-(2-ethoxyphenyl)carbamate] | 7.69 | – |
| COc1ccccc1NC(=O)OCCCN1CCN(c2ccncc2)CC1 [Compound 83, 3-[4-(4-pyridinyl)piperazino]propyl-N-(2-methoxyphenyl)carbamate] | 8.00 | – |
